Experiments:
[1] = biological target: T1, GABAA receptors composed of α1, β2 and γ2S subunits (Homo sapiens, UniProt P14867+P18507+P47870); assay: Modulation of GABA-induced chloride currents (IGABA), two-microelectrode voltage-clamp in Xenopus laevis oocytes expressing GABAA receptors; assay type: cell-based; conditions: for Stimulation of IGABA (%): 100 µM of compound, GABA EC3-10 concentration; for Maximal stimulation of IGABA: GABA EC3-10, α1β2γ2S receptors
T1 construct: expressed in transfected cells; host or cells: Xenopus laevis oocytes (stage V-VI), injected with cRNA transcribed from cDNA templates in pCMV vector; α1:β2:γ2S cRNA ratio 1:1:10
T1 sequence (P14867 28-456): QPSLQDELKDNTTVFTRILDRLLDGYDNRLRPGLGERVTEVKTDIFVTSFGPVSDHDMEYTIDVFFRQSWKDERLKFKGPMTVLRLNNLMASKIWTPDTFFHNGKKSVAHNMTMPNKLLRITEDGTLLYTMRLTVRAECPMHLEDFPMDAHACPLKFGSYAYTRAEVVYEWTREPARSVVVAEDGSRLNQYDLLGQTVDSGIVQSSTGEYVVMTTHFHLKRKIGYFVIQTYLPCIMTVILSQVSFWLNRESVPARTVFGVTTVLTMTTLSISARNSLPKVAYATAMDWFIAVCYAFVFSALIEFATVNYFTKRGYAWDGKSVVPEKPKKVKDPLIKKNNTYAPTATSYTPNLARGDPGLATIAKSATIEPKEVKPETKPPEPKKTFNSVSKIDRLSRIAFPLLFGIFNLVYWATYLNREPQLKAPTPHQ
T1 sequence (P47870 26-512): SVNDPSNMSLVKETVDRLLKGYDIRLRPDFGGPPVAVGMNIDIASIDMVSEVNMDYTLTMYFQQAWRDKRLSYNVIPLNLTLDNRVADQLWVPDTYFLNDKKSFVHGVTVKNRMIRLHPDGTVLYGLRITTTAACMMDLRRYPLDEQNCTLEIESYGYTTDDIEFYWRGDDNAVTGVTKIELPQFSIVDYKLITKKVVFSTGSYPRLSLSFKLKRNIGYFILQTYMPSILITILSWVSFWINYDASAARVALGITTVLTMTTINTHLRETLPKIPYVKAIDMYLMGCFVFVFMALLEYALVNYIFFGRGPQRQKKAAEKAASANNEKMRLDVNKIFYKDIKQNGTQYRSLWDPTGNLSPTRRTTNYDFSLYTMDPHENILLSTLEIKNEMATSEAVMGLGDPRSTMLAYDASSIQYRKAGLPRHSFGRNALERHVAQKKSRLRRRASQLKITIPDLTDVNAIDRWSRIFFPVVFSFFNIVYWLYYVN
T1 sequence (P18507 40-467 isoform P18507-1 limits assumed): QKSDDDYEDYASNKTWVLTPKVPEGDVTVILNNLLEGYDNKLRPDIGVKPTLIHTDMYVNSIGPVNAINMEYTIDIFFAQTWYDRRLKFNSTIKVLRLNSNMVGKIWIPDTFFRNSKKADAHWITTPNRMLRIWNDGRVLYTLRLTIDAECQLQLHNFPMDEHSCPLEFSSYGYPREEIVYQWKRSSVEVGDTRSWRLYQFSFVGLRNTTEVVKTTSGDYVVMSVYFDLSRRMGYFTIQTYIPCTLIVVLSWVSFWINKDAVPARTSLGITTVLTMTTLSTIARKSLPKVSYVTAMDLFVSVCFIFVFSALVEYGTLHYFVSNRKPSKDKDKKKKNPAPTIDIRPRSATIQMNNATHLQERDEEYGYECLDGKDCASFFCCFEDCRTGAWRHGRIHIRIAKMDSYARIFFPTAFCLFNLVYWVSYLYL
Method: Preparation of stage V-VI oocytes from Xenopus laevis, synthesis of capped off run-off poly(A^+) cRNA transcripts from linearized cDNA templates (pCMV vector) was performed as described (Khom et al. 2000). Briefly, female Xenopus laevis (NASCO, USA) were anaesthetised by exposing them for 15 minutes to a 0.2 % solution of MS-222 (methane sulfonate salt of 3-aminobenzoic acid ethyl ester; Sandoz) before surgically removing parts of the ovaries. Follicle membranes from isolated oocytes were enzymatically digested with 2 mg/ml collagenase (Type 1A, Sigma). One day after isolation, the oocytes were injected with about 10-50 nl of DEPC- treated water ([…], Sigma, Germany) containing the different cRNAs at a concentration of approximately 150 - 3000 ng/µl/subunit. The amount of cRNA was determined by means of a NanoDrop ND-1000 (Kisker-biotech, Steinfurt, Germany).
To ensure expression of the gamma-subunit, cRNAs were mixed in a ratio of 1:1:10 (Boileau et al., 2002). Oocytes were stored at 18°C in ND96 solution (Methfessel et al., 1986). Electrophysiological experiments were done using the two-microelectrode voyage-clamp method at a holding potential of -70 mV making use of a TURBO TEC 01C amplifier (npi electronic, Tamm, Germany) and an Axon Digidata 1322A interface (Molecular Devices, Sunnyvale, CA). Using pCLAMP v.9.2 data acquisition was carried out. The bath solution contained 90 mM NaCl, 1 mM KCI, 1 mM MgCl2·6H2O, 1 mM CaCl2 and 5 mM HEPES (pH 7.4). Microelectrodes were filled with 2M KCl and had resistances between 1 and 3 MΩ (Khom et al., 2007).
GABA and compound (extract, fraction or pure compound) were applied by means of fast perfusion system (see Baburin et al., 2006 for detail Drug or control solutions were applied by means of a TECAN Miniprep 60 permitting automation of the experiments. Oocytes with maximal current amplitudes >3 µA were discarded to exclude voltage-clamp errors (Khom et al., 2007).
Stimulation of chloride currents by modulators of the GABAA receptor was measured at a GABA concentration eliciting between 3 and 10% of the maximal current amplitude (EC3-10). The EC3-10 was determined at the beginning of each experiment. Enhancement of the chloride current was defined as (I(GABA+Comp)/IGABA) - 1, where I(GABA+Comp) is the current response in the presence of a given compound (extract, fraction or pure compound) and IGABA is the control GABA current. To measure the sensitivity of the GABAA receptor for a given compound, it was applied for an equilibration period of 1 minute before applying GABA ([…]). Concentration-response curves were generated and the data were fitted by non-iinear regression analysis using Origin software (OriginLab Corporation, USA). Data were fitted to the equation: (1)/(1 + (((EC50)/([Comp])))^nH), [formula] where nH is the Hill coefficient. Each data point represents the mean ± S.E. from at least 4 oocytes and ≥ 2 oocyte batches. Statistical significance was calculated using paired Student t-test with a confidence interval of p < 0.05.
As described above, dried and cut sub-aerial parts of A. racemosa were grinded and extracted with methanol. The resulting crude extract (A0) was subsequently partitioned between water and organic solvents of increasing polarity giving diethyl ether (A1), ethyl acetate (A2) and 1-butanol (A3) fractions. Obtained extracts and the remaining aqueous layer (A4) were tested for their ability to modulate IGABA at a concentration of 100 µg/mL. To analyse the modulation of IGABA by black cohosh extracts and isolated compounds, GABAA receptors composed of α1, β2 and γ2s subunits were expressed in Xenopus oocytes. Stimulation of IGABA was analysed by means of the 2-microelectrode voyage-clamp technique. These and all subsequent experiments were carried out at a GABA EC3-10 concentration.

[2] = biological target: T1, GABAA receptors composed of α1, β2 and γ2S subunits; assay: as above; assay type: cell-based; conditions: IGABA-max induced by application of 1mM GABA; data not shown
[3] = system: mice; assay: Stress-induced Hyperthermia Test (SIH); assay type: in vivo, mice (C57BI/6N)
Method: (§1) Male mice (C57BI/6N) were obtained from Charles River Laboratories (Germany).
(§2) For maintenance mice were group housed with free access to food and water. Temperature was fixed to 23°C and 60% humidity with a 12 h light-dark cycle (lights on 0700-1900 hours). Mice at 3-8 months age were tested in all experiments (Khom et al., 2010).
(§3) Mice were transferred to the testing facility 24 h before commencement of experiments. Tests were performed between 0900 and 1300 hours. All tests were evaluated by an experimenter blinded to the administered compound, 30 min prior to testing animals were injected either with saline (0.9% NaCl-solution) as a control or with 23-O-acetylshengmanol-3-O-β-D-xylopyranosid (i.e., compound 4) and actein (i.e., compound 1), respectively (50 mg/250 µL stock prepared in 100% DMSO) at the indicated doses (0.2 mg/kg, 0.6 mg/kg, 2 mg/kg, 6 mg/kg, 20 mg/kg and 60 mg/kg bodyweight). All injection solutions contained 3% Polysorbat 80 and 10% of DMSO.
A temperature probe, lubricated with petrolatum, was inserted into the rectum of the mouse for a depth of up to 2 cm. […]
Prior to i.p injection of compound or saline the basal body temperature was determined. 3h after i.p injection, temperature was measured twice by means of a TH-5 Thermalert Monitoring Thermometer combined with a RET-3 rectal probe for mice. […]

[4] = system: mice; assay: Open Field Test (OF); assay type: in vivo, mice (C57BI/6N); conditions: for distance traveled in the open field in 10 min: 20 mg/kg/bodyweight i.p., 30 min prior to testing, control 38.2 ± 1.8 m
Method: as §1, §2, §3
To determine explorative behaviour mice treated (n=9 for all doses) with compound 4 and control (n=11 mice were studied in the OF.
Open field behavior was tested over 10 min in a 50x50 cm box equipped with infrared rearing detection. Illumination was set to 150 lux. Explorative behavior was recorded and analyzed using the ActiMot 2 equipment (infrared beams) and software (TSE-systems, Bad Homburg, Germany). Arenas were subdivided into border (up to 8 cm from wall), center (20x20 cm, ie 16% of total area), and intermediate area according to the recommendations of EMPRESS (European Mouse Phenotyping Resource of Standardised Screens; http://empress.har.mrc.ac.uk).

[5] = system: mice; assay: Light/Dark Choice Test (LDT); assay type: in vivo, mice (C57BI/6N)
Method: as §1, §2, §3
Explorative behavior in a brightly lit area (400 lux) was investigated by insertion of a black box into the open field arena, covering one third of the space. Time spent and distance travelled was measured over a 10 min period in the open area. One small field directly at the entrance to the black box was assigned as transition zone. To reach the larger compartment assigned as open area, the mouse had to leave the dark area completely. Behaviour was recorded and analyzed by means of the ActiMot2 system and software (TSE-systems, Bad Homburg, Germany).

| Stimulation of IGABA (%) [1] | Molecule | EC50 [1] | Maximal stimulation of IGABA ([1]; compound 4 at 300 µM) | other results |
| --- | --- | --- | --- | --- |
| 64 ± 14% | CC(=O)O[C@H](C[C@@H](C)[C@H]1C(=O)[C@H](O)[C@@]2(C)[C@@H]3CC[C@H]4C(C)(C)[C@@H](O)CC[C@@]45C[C@@]35CC[C@]12C)[C@@H]1OC1(C)C [Compound 4a, 23-O-acetylshengmanol] | – | – | – |
| – | CC(=O)OC(CC(C)C1C(=O)C(O)C2(C)C3CCC4C(C)(C)C(OC5OCC(O)C(O)C5O)CCC45CC35CCC12C)C1OC1(C)C [Compound 4, 23-O-acetylshengmanol-3-O-β-D-xylopyranoside] | 27 ± 8 µM | – | chloride currents induced in the absence of GABA [2]: ≤ 1 % of IGABA-max; IGABA enhancement, times stronger than the other isolated compounds ([1]; 100 µM, GABA EC3-10): about 10 times; body temperature increase upon stress (ΔT) ([3]; 6 mg/kg/bodyweight i.p., 3h after injection, control 1.2 ± 0.1°): 0.1 ± 0.1 °; body temperature increase upon stress (ΔT) compared to control ([3]; i.p., doses of Figure 9): significantly (p<0.05) smaller increase; distance traveled in the open field in 10 min [4]: 22.6 ± 2.8 m; ambulation in all areas of the OF and overall ambulation compared to control ([4]; doses ≥2 mg/kg/bodyweight i.p.): significantly (p<0.05) decreased ambulation; reduced distance compared to control littermates ([4]; doses ≥20 mg/kg i.p.): approximately 50%; distance travelled in the lit area ([5]; i.p., data not shown): without significant effects; time spent in the lit area (400 Lux) ([5]; ip, 0.6 mg/kg, 10 min): 265 ± 52 s; Transitions from the dark compartment to the lit area ([5]; vs vehicle group, data not shown): did not differ |
| 5 ± 2% | CC(=O)O[C@@H]1C[C@@]23C[C@@]24CC[C@H](O[C@@H]2OC[C@@H](O)[C@H](O)[C@H]2O)C(C)(C)[C@@H]4CC=C3[C@]2(C)C[C@@H]3O[C@@]4(O)[C@H](OC(C)(C)[C@H]4O)[C@@H](C)[C@@H]3[C@@]12C [Compound 5, cimiracemoside F] | – | – | – |
| – | C[C@@H]1C[C@H]2O[C@@]3(O[C@@H]2C(C)(C)O)[C@H](O)[C@@]2(C)[C@@H]4CC[C@H]5C(C)(C)[C@@H](O[C@@H]6OC[C@@H](O)[C@H](O)[C@H]6O)CC[C@@]56C[C@@]46CC[C@]2(C)[C@@H]13 [Compound 6, cimigenol-3-O-β-D-xylopyranoside] | 28 ± 17 µM | 256 ± 40% | – |
| 126 ± 29% | 12-acetylacteol [Compound 1a] | – | – | – |
| – | CC(=O)O[C@@H]1C[C@@]23C[C@@]24CC[C@H](O[C@@H]2OC[C@@H](O)[C@H](O)[C@H]2O)C(C)(C)[C@@H]4CC[C@H]3[C@]2(C)C[C@@H]3O[C@]4(C[C@@H](C)[C@@H]3[C@@]12C)O[C@H](O)[C@@]1(C)O[C@@H]41 [Compound 1, actein] | 36 ± 14 µM | 378 ± 64% | distance traveled in the open field in 10 min [4]: 30.6 ± 2.1 m |
| 10 ± 4% | CC(=O)O[C@@H]1C[C@@]23C[C@@]24CC[C@H](O[C@@H]2OC[C@@H](O)[C@H](O)[C@H]2O)C(C)(C)[C@@H]4CC[C@H]3[C@]2(C)C[C@@H]3O[C@@]4(C[C@@H](C)[C@@H]3[C@@]12C)OC[C@@]1(C)O[C@@H]41 [Compound 3, 23-epi-26-deoxyactein] | – | – | – |
| – | CC(=O)OC(C)(C)[C@H]1O[C@@]23O[C@@H]1C[C@@H](C)[C@@H]2[C@@]1(C)CC[C@@]24C[C@@]25CC[C@H](O[C@@H]2OC[C@H](O)[C@H](O)[C@H]2O)C(C)(C)[C@@H]5CC[C@H]4[C@]1(C)[C@H]3O [Compound 8, 25-O-acetylcimigenol-3-O-α-L-arabinopyranoside] | 26 ± 7 µM | 289 ± 45% | Emax at 300 µM ([1]; read-out: Maximal stimulation of IGABA, GABA EC3-10, α1β2γ2S receptors, compound 4 at 300 µM): < 300% |

| Molecule | Stimulation of IGABA (%) [1] | EC50 [1] | Maximal stimulation of IGABA ([1]; compound 4 at 300 µM) | other results |
| --- | --- | --- | --- | --- |
| CC(=O)OC1CC23CC24CCC(OC2OCC(O)C(O)C2O)C(C)(C)C4CCC3C2(C)CC3OC4(CC(C)C3C12C)OCC1(C)OC14 (centres unmarked) [Compound 2, 26-deoxyactein] | 10 ± 6% | – | – | – |
| C=C(C)[C@H]1O[C@@]23O[C@@H]1C[C@@H](C)[C@@H]2[C@@]1(C)CC[C@@]24C[C@@]25CC[C@H](O[C@@H]2OC[C@@H](O)[C@H](O)[C@H]2O)C(C)(C)[C@@H]5CC[C@H]4[C@]1(C)[C@H]3O [Compound 10, 25-O-anhydrocimigenol-3-O-β-D-xylopyranoside] | -76 ± 7% | 26 ± 7 µM | – | – |

Reference: patent EP2438921A1, “23-O-Acetylshengmanol-3-O-beta-D-xylopyranoside and its medical use” (Universität Innsbruck, priority 2010, dated 2012)
